Test [1] concerns human colon cancer HCT116 cells. The experiment in a line: MTT assay of cell proliferation and cytotoxicity. The following applies: HCT-116, 48 hours. It counts as cell-based. How it is done:
Four thousand five hundred (4,500) human colon cancer HCT116 cells (ATCC, Manassas, Va. were used in an MTT (3-[4,5-dimethylthiazol-2-yl]-2,5 diphenyl tetrazolium bromide) assay to quantitatively determine cell proliferation and cytotoxicity. Typically, HCT116 cells were plated into each well of the 96-well tissue culture plate and left overnight to attach to the plate. Compounds at various concentrations (1 uM, 5 uM and 25 uM, in DMSO) were added in triplicate into the culture media (final DMSO concentration 1%) and incubated for 48 hours. MTT solution (obtained from Sigma as powder) was added and incubated with the cells for 4 hours at 37° C. in incubator with 5% CO2. During the incubation, viable cells convert MTT to a water-insoluble formazan dye. Solubilizing buffer (50% N,N-dimethylformamide, 20% SDS, pH 4.7) was added to cells and incubate for overnight at 37C in incubator with 5% CO2. Solubilized dye was quantitated by colorimetric reading at […] using a reference of […].
In general terms: Tetrazolium dyes change colour on reduction, which living cells bring about.

Test [2] deals with T1, human HDAC-1 (Homo sapiens, UniProt Q13547).
T1 construct: made in house; host or cells: insect cells (baculovirus expression system)
T1 sequence (Q13547 whole entry): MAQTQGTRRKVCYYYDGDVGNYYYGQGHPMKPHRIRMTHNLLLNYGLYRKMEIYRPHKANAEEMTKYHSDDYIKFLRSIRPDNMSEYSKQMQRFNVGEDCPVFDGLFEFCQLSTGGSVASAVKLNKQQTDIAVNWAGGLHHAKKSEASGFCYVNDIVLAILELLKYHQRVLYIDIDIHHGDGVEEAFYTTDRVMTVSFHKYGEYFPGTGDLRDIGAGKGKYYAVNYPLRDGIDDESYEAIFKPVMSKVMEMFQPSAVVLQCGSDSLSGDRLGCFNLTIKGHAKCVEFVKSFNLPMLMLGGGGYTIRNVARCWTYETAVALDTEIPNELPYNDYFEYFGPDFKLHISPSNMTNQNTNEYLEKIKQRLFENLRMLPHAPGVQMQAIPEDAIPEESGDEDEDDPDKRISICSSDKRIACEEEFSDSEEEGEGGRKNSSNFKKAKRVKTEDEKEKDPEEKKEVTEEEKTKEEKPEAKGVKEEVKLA
The experiment in a line: histone deacetylase enzyme assay, HDAC-1. It counts as biochemical. How it is done: (§1) The other HDAC isotypes, HDAC-3 and HDAC-4, were purified directly on an anti-Flag affinity column.
(§2) For the deacetylase assay, 20,000 cpm of an [^3H]-metabolically-labeled acetylated histone was used as a substrate. Histones were incubated with cloned recombinant human HDAC enzymes at 37° C. […] All assay conditions were pre-determined to be certain that each reaction was linear. Reactions were stopped by adding acetic acid (0.04 M final concentration) and HCl (250 mM, final concentration). The mixture was extracted with ethyl acetate, and the released [3H]-acetic acid was quantified by liquid scintillation counting. For the inhibition studies, HDAC enzyme was preincubated with test compounds for 30 minutes at 4° C. prior to the start of the enzymatic assay. IC50 values for HDAC enzyme inhibitors were identified with dose response curves for each individual compound and, thereby, obtaining a value for the concentration of inhibitor that produced fifty percent of the maximal inhibition.

For test [3], the target named is HDAC 2 (Homo sapiens, UniProt Q92769). The experiment in a line: histone deacetylase enzyme assay, HDAC 2. It counts as biochemical. How it is done:
as §2

The target of test [4] is T2, human HDAC-6 (Homo sapiens, UniProt Q9UBN7).
T2 construct: made in house; host or cells: insect cells (baculovirus expression system)
T2 sequence (Q9UBN7 1-1215): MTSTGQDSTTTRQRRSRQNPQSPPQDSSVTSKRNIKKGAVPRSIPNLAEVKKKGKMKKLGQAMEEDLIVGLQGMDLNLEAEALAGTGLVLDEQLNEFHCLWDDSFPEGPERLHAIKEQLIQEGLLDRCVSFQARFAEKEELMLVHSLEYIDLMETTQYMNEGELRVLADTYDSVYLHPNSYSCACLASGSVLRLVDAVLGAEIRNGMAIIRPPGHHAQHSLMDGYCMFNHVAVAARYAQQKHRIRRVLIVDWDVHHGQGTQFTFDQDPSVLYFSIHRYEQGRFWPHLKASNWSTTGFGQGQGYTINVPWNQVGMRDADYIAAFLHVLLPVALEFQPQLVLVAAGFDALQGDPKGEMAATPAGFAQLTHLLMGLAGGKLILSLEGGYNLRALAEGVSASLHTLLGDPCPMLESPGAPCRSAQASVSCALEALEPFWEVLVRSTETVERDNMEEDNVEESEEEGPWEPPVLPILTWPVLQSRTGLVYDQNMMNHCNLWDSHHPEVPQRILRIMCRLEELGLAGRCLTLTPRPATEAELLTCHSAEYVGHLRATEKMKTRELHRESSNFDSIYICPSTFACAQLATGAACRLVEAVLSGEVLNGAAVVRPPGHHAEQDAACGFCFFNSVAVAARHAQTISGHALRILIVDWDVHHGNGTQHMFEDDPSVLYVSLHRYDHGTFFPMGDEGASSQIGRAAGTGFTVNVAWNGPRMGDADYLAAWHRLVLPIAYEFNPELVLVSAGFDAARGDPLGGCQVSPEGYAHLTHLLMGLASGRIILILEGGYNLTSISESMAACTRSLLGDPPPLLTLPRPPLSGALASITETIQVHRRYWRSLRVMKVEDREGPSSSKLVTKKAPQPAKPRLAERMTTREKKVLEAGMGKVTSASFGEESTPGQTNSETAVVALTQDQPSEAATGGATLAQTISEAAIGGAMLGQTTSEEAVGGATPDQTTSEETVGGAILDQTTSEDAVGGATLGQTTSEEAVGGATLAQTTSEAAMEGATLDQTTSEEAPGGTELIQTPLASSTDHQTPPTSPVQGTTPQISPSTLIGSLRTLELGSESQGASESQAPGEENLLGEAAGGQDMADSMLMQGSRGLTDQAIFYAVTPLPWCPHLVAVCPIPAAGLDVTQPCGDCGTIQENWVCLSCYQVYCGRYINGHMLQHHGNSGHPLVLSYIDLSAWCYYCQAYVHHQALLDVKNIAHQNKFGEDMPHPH
The experiment in a line: histone deacetylase enzyme assay, HDAC-6. In kind it is biochemical. On the procedure:
as §1, §2

Test [5] can be described thus: cell cycle arrest. It counts as cell-based.
Test [6] deals with T3, human HDAC-3 (Homo sapiens, UniProt O15379).
T3 construct: made in house; host or cells: insect cells (baculovirus expression system)
T3 sequence (O15379 whole entry): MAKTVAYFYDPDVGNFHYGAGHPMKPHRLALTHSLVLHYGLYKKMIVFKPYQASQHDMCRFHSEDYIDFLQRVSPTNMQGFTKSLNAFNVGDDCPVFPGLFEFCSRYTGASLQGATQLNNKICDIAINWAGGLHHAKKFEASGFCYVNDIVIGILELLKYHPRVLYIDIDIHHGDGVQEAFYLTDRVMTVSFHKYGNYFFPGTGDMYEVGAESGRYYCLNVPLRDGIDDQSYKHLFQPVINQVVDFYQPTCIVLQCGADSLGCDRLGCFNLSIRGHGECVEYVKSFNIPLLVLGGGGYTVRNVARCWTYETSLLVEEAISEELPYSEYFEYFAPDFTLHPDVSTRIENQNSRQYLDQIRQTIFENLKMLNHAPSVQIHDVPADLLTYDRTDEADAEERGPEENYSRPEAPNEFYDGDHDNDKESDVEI
As to the kind of experiment: histone deacetylase enzyme assay, HDAC-3. It counts as biochemical. How it is done: as §1, §2

Test [7] has as its system acetylated histone H-4 in T24 human bladder cancer cells. As to the kind of experiment: inhibition of HDAC activity in whole cells (acetylated histone H-4 Western). In kind it is cell-based. The following applies: 16 hours. How it is done: T24 human bladder cancer cells (ATCC, Manassas, Va.) growing in culture were incubated with test compounds for 16 hours. Histones were extracted from the cells by standard procedures (see e.g. Yoshida et al., supra) after the culture period. Twenty μg total core histone protein was loaded onto SDS/PAGE and transferred to nitrocellulose membranes, which were then reacted with polyclonal antibody specific for acetylated histone H-4 (Upstate Biotech Inc., Lake Placid, […].). Horse Radish Peroxidase conjugated secondary antibody was used at a dilution of 1:5000 to detect primary antibody binding. The secondary antibody binding was visualized by use of the Enhanced chemiluminescence (ECL) detection kit (Amersham-Pharmacia Biotech., Inc., Piscataway, N.J.). After exposure to film, acetylated H-4 signal was quantitated by densitometry.

The target in test [8] is T4, human HDAC-4 (Homo sapiens, UniProt P56524).
T4 construct: Flag; made in house; host or cells: human embryonic kidney 293 cells (calcium phosphate transfection)
T4 sequence (P56524 whole entry): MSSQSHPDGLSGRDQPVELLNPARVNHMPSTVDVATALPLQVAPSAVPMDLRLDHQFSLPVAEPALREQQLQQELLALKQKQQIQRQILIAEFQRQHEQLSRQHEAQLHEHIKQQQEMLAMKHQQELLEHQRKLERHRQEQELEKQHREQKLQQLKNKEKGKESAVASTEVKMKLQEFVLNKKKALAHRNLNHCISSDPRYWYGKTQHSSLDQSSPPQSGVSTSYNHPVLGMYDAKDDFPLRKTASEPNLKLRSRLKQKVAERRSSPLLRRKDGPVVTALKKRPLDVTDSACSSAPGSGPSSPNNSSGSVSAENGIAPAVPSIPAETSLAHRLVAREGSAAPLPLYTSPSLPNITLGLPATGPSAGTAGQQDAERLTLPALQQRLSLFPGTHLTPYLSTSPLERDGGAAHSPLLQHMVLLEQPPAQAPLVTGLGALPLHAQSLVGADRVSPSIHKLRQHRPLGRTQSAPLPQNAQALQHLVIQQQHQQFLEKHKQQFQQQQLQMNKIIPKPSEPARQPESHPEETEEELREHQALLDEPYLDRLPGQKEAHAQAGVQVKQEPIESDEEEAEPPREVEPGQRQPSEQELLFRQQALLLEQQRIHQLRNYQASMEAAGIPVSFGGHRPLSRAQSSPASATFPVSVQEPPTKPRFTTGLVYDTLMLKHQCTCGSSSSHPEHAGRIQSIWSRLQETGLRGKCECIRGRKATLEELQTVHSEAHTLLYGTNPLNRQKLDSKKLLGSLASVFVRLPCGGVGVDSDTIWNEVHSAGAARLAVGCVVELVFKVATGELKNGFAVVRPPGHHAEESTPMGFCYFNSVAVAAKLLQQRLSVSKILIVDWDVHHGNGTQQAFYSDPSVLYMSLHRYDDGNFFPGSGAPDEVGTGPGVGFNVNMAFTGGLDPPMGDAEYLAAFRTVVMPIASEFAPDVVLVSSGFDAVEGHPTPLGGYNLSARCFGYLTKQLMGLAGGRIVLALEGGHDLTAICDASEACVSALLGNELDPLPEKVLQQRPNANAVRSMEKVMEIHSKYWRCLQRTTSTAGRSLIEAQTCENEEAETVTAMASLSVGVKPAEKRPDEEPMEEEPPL
The experiment in a line: histone deacetylase enzyme assay, HDAC-4. In kind it is biochemical. On the procedure:
Flag-tagged human HDAC-4 enzyme was produced in human embronic kidney 293 cells after transformation by the calcium phosphate precipitation method. Briefly, 293 cells were cultured in Dulbecco's Modified Eagle Medium (DMEM) containing 10% fetal bovine serum and antibiotics. Plasmid DNA encoding Flag-tagged human HDAC-4 was precipitated by ethanol and resuspend in sterile water. DNA-calcium precipitates, formed by mixing DNA, calcium choloride and 2×HEPES-buffered saline solution, were left on 293 cells for 12-16 hours. Cells were return to serum-contained DMEM medium and harvested at 48 hour post transfection for purification of Flag-tagged HDAC-4 enzyme.
as §1, §2

The test system of test [9] is p21. The experiment in a line: p21 induction by small molecules. In kind it is cell-based.
Test [10] concerns human colon cancer cells (HCT116). As to the kind of experiment: tumor growth in a mouse model, colon. In kind it is in vivo, BALB/c nude mice. The following applies: 40 mg/kg body weight/day, i p; vs vehicle-treated mice. How it is done: Female BALB/c nude mice were obtained from Charles River Laboratories (Charles River, NY) and used at age 8-10 weeks. Human prostate tumor cells (DU145, 2×10^6) or human colon cancer cells (HCT116; 2×10^6) or small lung core A549 2×10^6 were injected subcutaneously in the animal's flank and allowed to form solid tumors. Tumor fragments were serially passaged a minimum of three times, then approximately 30 mg tumor fragments were implanted subcutaneously through a small surgical incision under general anaesthesia. Small molecule inhibitor administration by intraperotineal or oral administration was initiated when the tumors reached a volume of 100 mm^3. For intraperotineal administration, small molecule inhibitors of HDAC (40-50 mg/kg body weight/day) were dissolved in 100% DMSO and administered daily intraperitoneally by injection. For oral administration, small molecule inhibitors of HDAC (40-50 mg/kg body weight/days) were dissolved in a solution containing 65% polyethylene glycol 400 (PEG 400 (Sigma-Aldridge, Mississauga, Ontario, Calif., Catalogue No. P-3265), 5% ethanol, and 30% water. Tumor volumes were monitored twice weekly up to 20 days. Each experimental group contained at least 6-8 animals. Percentage inhibition was calculated using volume of tumor from vehicle-treated mice as controls.

Bounds are passed on as bounds.

As a reminder, the IC50 is the concentration that gives 50% inhibition.

Sequence of HDAC 2 (Q92769 whole entry): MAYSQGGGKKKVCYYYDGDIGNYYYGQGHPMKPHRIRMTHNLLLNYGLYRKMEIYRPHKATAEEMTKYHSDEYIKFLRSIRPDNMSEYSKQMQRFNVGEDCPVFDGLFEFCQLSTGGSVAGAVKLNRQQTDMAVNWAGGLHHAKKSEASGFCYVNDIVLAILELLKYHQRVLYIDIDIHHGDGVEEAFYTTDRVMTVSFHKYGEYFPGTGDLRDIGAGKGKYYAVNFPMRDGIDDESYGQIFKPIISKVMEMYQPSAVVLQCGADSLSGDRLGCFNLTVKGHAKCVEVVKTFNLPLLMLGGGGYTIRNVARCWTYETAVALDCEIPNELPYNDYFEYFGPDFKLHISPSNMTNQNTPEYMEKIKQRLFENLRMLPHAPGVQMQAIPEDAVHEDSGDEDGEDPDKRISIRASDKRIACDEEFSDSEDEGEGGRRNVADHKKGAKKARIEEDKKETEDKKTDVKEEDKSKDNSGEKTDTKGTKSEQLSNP

Turning to `CC(/C=C/C(=O)Nc1ccccc1N)=C\C(C)C(=O)c1ccc(N(C)C)cc1` (stereo not drawn) [MG 242 9], the IC50 in test [1] was 1 µM; in [2], 3 µM; in test [3], 25 µM; in test [4], over 50 µM; in test [6], 21 µM; in test [8], 23 µM. Further, in test [5], the “cell cycle arrest EC” value was 2 µM. The “effective concentration for histone H4 acetylation” value (shortened to “effective concentration”) in [7] amounted to 1 µM. The p21 induction in [9] is 3 µM.
With `Nc1ccccc1NC(=O)CCCCCCC(=O)c1ccc(-c2ccccc2)cc1` [MG 365 0], the IC50 in [1] is 5 µM; in test [3], 4 µM; in test [4], over 50 µM; in test [6], over 20 µM; in test [8] it was 23 µM. Further, in test [10], the “% inh. of tumor formation in vivo, colon” value is given as 53 (40, i p) %. Also, the “cell cycle arrest EC” value in test [5] was determined as 9 µM. Further, the “effective concentration” value in test [7] turned out to be 10 µM. This compound showed a p21 induction in test [9] of 10 µM.
Turning to `Cc1ccc(S(=O)(=O)Nc2ccc(/C=C/C(=O)Nc3ccccc3N)cc2)cc1` [MG 376 3], the IC50 in test [1] was 4 µM; in [2] it was 3 µM; in test [4], over 50 µM; in [6] it was 45 µM; in test [8] it was 28 µM. In [10], the “% inh. of tumor formation in vivo, colon” value is 55 (40, i p) %. Besides, the “cell cycle arrest EC” value in test [5] was 2 µM. Also, the “effective concentration” value in test [7] came out at 5 µM. Also, the p21 induction in test [9] came to 2 µM.

The values are drawn from patent US20030148970A1, “Methods for specifically inhibiting histone deacetylase-4” (priority 2001, published 2003).
